From paper PMC9501633, “Synthesis, Characterisation and Mechanism of Action of Anticancer 3-Fluoroazetidin-2-ones” (Pharmaceuticals, 2022) come the findings set out here.

Experiment [1] has as its system MCF-7 human breast cancer cells. Put plainly: AlamarBlue cell viability assay. Format: cell-based. The settings on record: for IC50: MCF-7, 72 h. As for the experimental part: The antiproliferative potential of the synthesised 3-fluoro β-lactams 26–35 and 3,3-difluoro β-lactams 36–45 was evaluated in MCF-7 human breast cancer cells using the AlamarBlue assay, with CA-4 as reference compound (Figure 3). […] The results for the preliminary in vitro antiproliferative screen for 3-fluoro β-lactam compounds (26–29), which contain different substituents at the para position in the B ring, are presented in Figure 3A.
Cells were seeded at a density of 5 × 10^3 cells/well (MCF-7 and MDA-MB-231) and 1 × 10^4 cells/well (HEK-293T) in 96-well plates (200 μL per well). After 24 h, cells were then treated with medium alone, with vehicle (1% ethanol (v/v)) or with CA-4 or β-lactam compounds at 1 μM and 10 μM concentrations. […] Cell proliferation for MCF-7 cells was analysed with the AlamarBlue assay (Invitrogen Corp.) as previously described by us. After 72 h, AlamarBlue (10% (v/v)) was added to each well, and plates were incubated for 3–5 h at 37 °C in the dark. Fluorescence results were obtained with a 96-well fluorimeter with excitation at 530 nm and emission at 590 nm with results recorded as percentage viability relative to vehicle control (100%). Dose–response curves were obtained and IC50 values (concentration of drug resulting in 50% reduction in cell survival) were calculated using Prism (GraphPad Software, Inc., La Jolla, CA, USA).
Figure 3 Preliminary cell viability data for 3-fluoro and 3,3-difluoro β-lactam compounds. (A) 3-Fluoro β-lactam compounds containing different para-substituent ring B 26–29; 3-fluoro β-lactam compounds containing different meta-substituent ring B 30, 32–35; (B) 3-difluoro β-lactam compounds containing different para-substituent ring B 36–39; 3-difluoro β-lactam compounds containing different meta-substituent ring B 40, 42–45 in MCF-7 breast cancer cells. Cell proliferation of MCF-7 cells was determined with an AlamarBlue assay (seeding density […] for 96-well plates). Compound concentrations of either 10 μM or 1 μM for 72 h were used to treat the cells with control wells containing vehicle ethanol (1% v/v) and CA-4 (10 μM and 1 μM). The mean value for three experiments is shown with the ± S.E.M. for three independent experiments.
A general note: Resazurin is reduced to fluorescent resorufin, in cell work by metabolically active cells.

The next experiment relates to SW-480 cells. In words: AlamarBlue cell viability assay. It counts as cell-based. As for the experimental part: Compound # (Treatment Concentration µM) […]
different para-substituent ring B 26-29; 3-fluoro β-lactam compounds containing different meta-substituent ring B 30, 33-35; (B) 3,3-difluoro β-lactam compounds containing different para-substituent ring B 36-39; 3,3-difluoro β-lactam compounds containing different meta-substituent […]
ring B 40, 42-45 in SW-480 cancer cells.
Cell proliferation of MCF-7 cells was determined with an alamarBlue assay (seeding density […]
Compound concentrations of either 10 μM or 1 μM for 72 h were used to treat the cells with control wells containing vehicle ethanol (1%

The subject of another experiment is MCF-7 cells. Put plainly: Immunofluorescence confocal microscopy of the microtubule network. Format: cell-based, human. The settings on record: MCF-7, 16 h; 33 0.1, 0.5 and 1.0 μM; paclitaxel 1.0 μM; CA-4 0.01 μM. The procedure:
The tubulin-targeting effect of compound 33 on the microtubule network of MCF-7 cells was further evaluated by immunofluorescence studies to identify the cellular effects that are relevant to its mechanism of action by inhibiting the polymerisation of tubulin. […] Treatment of MCF-7 cells with compound 33 (0.1, 0.5 and 1.0 μM) induced cell rounding and distinct abnormalities of the spindle formation as well as a loss of the structured tubulin that impacts the microtubule network structure in a dose-dependent manner.
Confocal microscopy was used to determine the effects of novel compound 33 and standard drugs on the MCF-7 cytoskeleton according to the protocols we previously described. For the immunofluorescence study, MCF-7 cells were seeded at 1 × 10^5 cells/mL using eight chamber glass slides (BD Biosciences). The cells were treated with vehicle control (1% ethanol (v/v)), CA-4 (0.01 μM), paclitaxel (1 µM) and 33 (0.1 µM, 0.5 µM and 1 µM) for 16 h. The cells were gently washed in PBS, fixed with 4% paraformaldehyde in PBS (20 min) and permeabilised in 0.5% Triton X-100. After further washes in PBS (containing 0.1% Tween (PBST)), cells were blocked with 5% bovine serum albumin which was diluted with PBST. Cells were incubated with mouse monoclonal anti-α-tubulin–FITC antibody (clone DM1A) (Sigma) (1:100) at 20 °C for 2 h and then washed in PBST and incubated with Alexa Fluor 488 dye (1:500) for 1 h at 20 °C. Cells were washed in PBST and mounted in Ultra Cruz Mounting Media (Santa Cruz Biotechnology, Santa Cruz, CA, USA) containing 4,6-diamino-2-phenolindol dihydrochloride (DAPI). The images were captured by Leica SP8 confocal microscopy with Leica Application Suite X software. Experiments were performed on three independent occasions and images were collected on the same day using identical parameters.
Figure 8 Compound 33 acts as depolymeriser of the microtubule network of MCF-7 breast cancer cells. Cells were treated with vehicle control ([…]), CA-4 (0.01 μM), paclitaxel (1 μM) or compound 33 (0.1, 0.5 and 1 μM) for 16 h. […]

The structures appear in SMILES notation.

As a reminder, the IC50 is the concentration that inhibits the measured activity by half. A low value points to inhibition by little substance. Consider `COc1ccc(/C=C\c2cc(OC)c(OC)c(OC)c2)cc1O` [CA-4, combretastatin A-4, reference compound], for which the concentration for half-maximal inhibition (IC50) in experiment [1] (Homo sapiens, MCF7, 72 h) was 3 nM; in experiment [1] it was 3.5 nM; in the experiment with SW-480 cells (Homo sapiens, SW480 cells), 6.3 ± 0.6 nM. Further, in the experiment on MCF-7 cells, the “effect on the microtubule network” value is “depolymerisation and destabilisation”.
Consider `COc1ccc(C2C(F)C(=O)N2c2cc(OC)c(OC)c(OC)c2)cc1F` (stereo not drawn) [Compound 33, 3-Fluoro-4-(3-fluoro-4-methoxyphenyl)-1-(3,4,5-trimethoxyphenyl)azetidin-2-one], for which the viability at 1 µM in experiment [1] (Homo sapiens, MCF7, 72 h, MCF-7, 1 μM, 72 h, read-out: viable cells remaining) came out at 37%. Further, inhibition in experiment [1] (Homo sapiens, MCF7, 72 h) was half-maximal at 95 nM (IC50). Besides, in the experiment with SW-480 cells (SW-480, 10 μM, 72 h), the cells remaining worked out at 62%. Also, in the experiment on MCF-7 cells, the “effect on the microtubule network” value was “destabilising microtubules”.
In turn, `COc1ccc(C2N(c3cc(OC)c(OC)c(OC)c3)C(=O)C2(F)F)cc1F` (stereo not drawn) [Compound 43, 3,3-Difluoro-4-(3-fluoro-4-methoxyphenyl)-1-(3,4,5-trimethoxyphenyl)azetidin-2-one] returned an IC50 in experiment [1] (Homo sapiens, MCF7, 72 h) of 1650 nM.
